Data as given in patent US20260272934A1 (The United States of America, as represented by the …, priority 2023, published 2026).

Legend:
Beta3 = Beta3 (Homo sapiens, UniProt P13945); experiment: Off-target primary and secondary screen; type: binding; settings: 10 mM sample
5-HT2C = molecular target: T1, 5-HT2C (Homo sapiens, UniProt P28335); experiment: Off-target primary and secondary screen; type: binding; settings: for Primary screen AVE (% inhib) ± SD: 10 mM sample
T1 sequence (P28335 33-458): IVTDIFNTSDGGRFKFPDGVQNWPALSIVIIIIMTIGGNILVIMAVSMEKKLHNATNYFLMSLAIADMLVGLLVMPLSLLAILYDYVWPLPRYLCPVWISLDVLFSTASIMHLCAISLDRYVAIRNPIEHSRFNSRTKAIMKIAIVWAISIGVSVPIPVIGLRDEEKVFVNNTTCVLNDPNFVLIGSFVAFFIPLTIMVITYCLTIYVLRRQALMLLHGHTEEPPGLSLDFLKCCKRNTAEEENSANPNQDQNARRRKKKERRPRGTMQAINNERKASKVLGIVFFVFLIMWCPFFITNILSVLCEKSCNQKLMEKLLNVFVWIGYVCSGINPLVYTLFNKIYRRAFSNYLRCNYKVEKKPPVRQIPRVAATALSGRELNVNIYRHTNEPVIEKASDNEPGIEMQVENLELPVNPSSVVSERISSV

M1 = M1 (Homo sapiens, UniProt P11229); experiment: Off-target primary and secondary screen; type: binding; settings: 10 mM sample
DOR = DOR (Homo sapiens, UniProt P41143); experiment: Off-target primary and secondary screen; type: binding; settings: 10 mM sample
[1] = molecular target: T2, full-length Plk1 / biotinylated PBIP1 phospho-T78 peptide interaction (Homo sapiens, UniProt P53350); experiment: ELISA-based PBD1-binding inhibition assay; settings: at least three independent experiments; read-out: ELISA (IC50) Mean ± SEM
T2 construct: HA; EGFP; expressed in transfected cells; host or cells: HEK293A cells infected with adenovirus; total lysates

5-HT5A = 5-HT5A (Homo sapiens, UniProt P47898); experiment: Off-target primary and secondary screen; type: binding; settings: 10 mM sample
Beta1 = Beta1 (Homo sapiens, UniProt P08588); experiment: Off-target primary and secondary screen; type: binding; settings: 10 mM sample
Alpha2A = Alpha2A (Homo sapiens, UniProt P08913); experiment: Off-target primary and secondary screen; type: binding; settings: 10 mM sample
M4 = M4 (Homo sapiens, UniProt P08173); experiment: Off-target primary and secondary screen; type: binding; settings: 10 mM sample
Hela cells = experiment: Immunoprecipitation, confocal imaging and time-lapse analyses in Hela cells; type: cell-based
Excerpt: FIG. 5 illustrates the inhibition by Allopole of PBD1-dependent interactions and subcellular localizations leading to mitotic block in Hela cells. FIG. 5a depicts the immunoprecipitation and immunoblotting analyses.

M5 = M5 (Homo sapiens, UniProt P08912); experiment: Off-target primary and secondary screen; type: binding; settings: 10 mM sample
KOR = KOR (Homo sapiens, UniProt P41145); experiment: Off-target primary and secondary screen; type: binding; settings: 10 mM sample
[2] = molecular target: T3, PBD1 WT or mutants (F559) (Homo sapiens, UniProt P53350, F559D); experiment: FP-based inhibition and U2OS imaging with PBD1/Plk1 WT or F559 mutants; type: binding; settings: in vitro and in vivo; U2OS cells 8 μM
T3 construct: the indicated PBD1 WT or mutants in the presence of various concentrations of Allopole
Procedure: Bars, mean #s.d. FIG. 7(b) depicts the results of FP-based inhibition assays for the interaction between FITC-Ahx-DPPLHS-pT-AI-NH2 and the indicated PBD1 WT or mutants in the presence of various concentrations of Allopole. Bars, mean±s.d. FIG. 7(c) depicts confocal imaging and quantification of Plk1 endogenous promoter (Pendo)-fused mGFP-Plk1 signals in U2OS cells silenced for endogenous Plk1 (siPlk1) and treated with 8 μM of Allopole for the indicated length of time (Experimental procedure at bottom, right). Arrowheads, centrosomes. Quantification of Pendo-mGFP-Plk1 signals was performed with the images acquired from three independent experiments [n=a total of 93, 53, and 79 cells for Plk1 WT samples (in order) and n=a total of 92, 64, and 76 cells for the F559D mutant samples (in order)]. Bars, mean±s.d. Arrowheads, centrosomes. ****, P<0.0001 (unpaired two-tailed t-test).

H3 = H3 (Homo sapiens, UniProt Q9Y5N1); experiment: Off-target primary and secondary screen; type: binding; settings: 10 mM sample
GABAA = experiment: Off-target primary and secondary screen; type: binding; settings: for Primary screen AVE (% inhib) ± SD: 10 mM sample
Alpha1B = Alpha1B (Homo sapiens, UniProt P35368); experiment: Off-target primary and secondary screen; type: binding; settings: 10 mM sample
PBD1 = PBD1 (Homo sapiens, UniProt P53350); experiment: FP-based inhibition assay; type: binding; settings: read-out: PBD1 IC50 ± SD
Procedure: In the following, PBD1-3 fluorescence polarization (FP) binding assays were carried out for determining the Plk1 specificity. […] All samples were analyzed approximately 30 min after reaction in a 384-well format using the SpectraMax Paradigm multi-mode microplate detection platform (Molecular Devices). Data were analyzed after carrying out at least three independent experiments using GraphPad Prism software version 7.

Plk3 PBD = experiment: FP-based inhibition assay; type: binding; settings: N.S. = Not significant
Procedure: (§1) In the following, PBD1-3 fluorescence polarization (FP) binding assays were carried out for determining the Plk1 specificity. FP assays were carried out essentially as described previously {Liu, 2011 #2790; Qian, 2014 #1416}. All samples were analyzed approximately 30 min after reaction in a 384-well format using the SpectraMax Paradigm multi-mode microplate detection platform (Molecular Devices). Data were analyzed after carrying out at least three independent experiments using GraphPad Prism software version 7.

Plk2 PBD = experiment: FP-based inhibition assay; type: binding; settings: N.S. = Not significant
Procedure: as §1

T2 sequence (P53350 whole entry): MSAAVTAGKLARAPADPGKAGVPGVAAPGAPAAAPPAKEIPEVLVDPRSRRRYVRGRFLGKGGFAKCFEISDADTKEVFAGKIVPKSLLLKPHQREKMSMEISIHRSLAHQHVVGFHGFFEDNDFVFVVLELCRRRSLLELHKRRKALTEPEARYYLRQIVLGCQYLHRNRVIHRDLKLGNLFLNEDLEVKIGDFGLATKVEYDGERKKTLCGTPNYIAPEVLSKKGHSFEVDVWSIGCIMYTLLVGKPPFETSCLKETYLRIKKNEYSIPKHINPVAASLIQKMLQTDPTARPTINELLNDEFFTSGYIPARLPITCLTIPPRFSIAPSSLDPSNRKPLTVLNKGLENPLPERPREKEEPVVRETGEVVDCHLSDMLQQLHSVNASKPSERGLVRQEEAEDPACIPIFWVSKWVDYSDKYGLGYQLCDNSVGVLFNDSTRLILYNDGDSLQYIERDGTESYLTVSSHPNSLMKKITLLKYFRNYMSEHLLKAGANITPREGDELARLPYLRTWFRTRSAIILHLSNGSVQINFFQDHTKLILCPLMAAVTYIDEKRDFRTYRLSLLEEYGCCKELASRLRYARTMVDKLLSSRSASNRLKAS
Sequence of Alpha1B (P35368 whole entry): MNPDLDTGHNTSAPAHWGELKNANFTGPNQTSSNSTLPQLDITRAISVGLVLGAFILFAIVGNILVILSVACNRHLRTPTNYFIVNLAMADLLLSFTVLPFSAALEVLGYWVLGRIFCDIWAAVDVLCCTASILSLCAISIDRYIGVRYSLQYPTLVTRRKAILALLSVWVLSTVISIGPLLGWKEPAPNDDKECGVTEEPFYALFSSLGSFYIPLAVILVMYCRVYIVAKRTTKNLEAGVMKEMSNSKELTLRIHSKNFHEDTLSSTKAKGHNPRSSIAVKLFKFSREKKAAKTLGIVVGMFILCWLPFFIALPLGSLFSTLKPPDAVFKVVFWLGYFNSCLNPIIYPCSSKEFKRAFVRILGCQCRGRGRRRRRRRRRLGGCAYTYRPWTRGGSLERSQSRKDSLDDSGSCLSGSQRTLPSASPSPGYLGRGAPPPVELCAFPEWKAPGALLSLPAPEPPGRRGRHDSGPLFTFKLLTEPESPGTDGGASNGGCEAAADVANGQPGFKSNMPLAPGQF
Sequence of M5 (P08912 whole entry): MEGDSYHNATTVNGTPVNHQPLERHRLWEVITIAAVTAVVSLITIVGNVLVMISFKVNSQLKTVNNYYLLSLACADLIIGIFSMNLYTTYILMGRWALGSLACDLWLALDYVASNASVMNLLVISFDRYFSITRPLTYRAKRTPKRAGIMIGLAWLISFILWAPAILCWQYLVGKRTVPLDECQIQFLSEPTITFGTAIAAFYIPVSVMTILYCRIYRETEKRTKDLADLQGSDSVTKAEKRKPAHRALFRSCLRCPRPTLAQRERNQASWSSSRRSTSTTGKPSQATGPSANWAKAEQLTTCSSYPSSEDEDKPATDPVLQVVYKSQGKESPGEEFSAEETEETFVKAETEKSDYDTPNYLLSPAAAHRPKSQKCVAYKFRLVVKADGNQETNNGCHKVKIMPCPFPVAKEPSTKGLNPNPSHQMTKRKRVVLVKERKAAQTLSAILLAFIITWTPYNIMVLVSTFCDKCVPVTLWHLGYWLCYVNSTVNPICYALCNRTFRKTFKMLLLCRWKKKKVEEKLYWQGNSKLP
Sequence of M4 (P08173 whole entry): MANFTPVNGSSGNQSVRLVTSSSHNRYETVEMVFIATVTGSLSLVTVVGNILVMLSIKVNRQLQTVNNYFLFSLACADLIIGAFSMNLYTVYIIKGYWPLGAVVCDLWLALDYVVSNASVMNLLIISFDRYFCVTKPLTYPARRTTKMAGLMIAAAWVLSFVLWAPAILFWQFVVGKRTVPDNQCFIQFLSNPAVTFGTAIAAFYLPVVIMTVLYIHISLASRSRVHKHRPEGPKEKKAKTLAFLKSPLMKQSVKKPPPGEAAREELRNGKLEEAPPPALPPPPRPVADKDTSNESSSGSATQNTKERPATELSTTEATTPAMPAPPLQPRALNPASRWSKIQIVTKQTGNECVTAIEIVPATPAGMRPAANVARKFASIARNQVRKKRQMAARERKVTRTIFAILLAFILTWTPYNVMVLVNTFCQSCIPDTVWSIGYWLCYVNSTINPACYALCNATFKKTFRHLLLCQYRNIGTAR
Sequence of DOR (P41143 whole entry): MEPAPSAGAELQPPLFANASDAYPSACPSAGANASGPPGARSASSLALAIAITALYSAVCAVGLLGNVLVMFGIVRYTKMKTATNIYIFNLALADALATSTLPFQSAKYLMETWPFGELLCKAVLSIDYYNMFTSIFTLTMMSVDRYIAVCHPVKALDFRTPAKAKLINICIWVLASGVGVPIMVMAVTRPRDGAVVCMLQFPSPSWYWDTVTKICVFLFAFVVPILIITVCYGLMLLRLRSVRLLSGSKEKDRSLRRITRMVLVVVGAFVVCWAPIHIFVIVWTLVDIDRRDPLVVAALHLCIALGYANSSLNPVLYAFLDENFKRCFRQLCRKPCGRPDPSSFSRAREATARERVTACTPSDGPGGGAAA
Sequence of 5-HT5A (P47898 whole entry, species assumed): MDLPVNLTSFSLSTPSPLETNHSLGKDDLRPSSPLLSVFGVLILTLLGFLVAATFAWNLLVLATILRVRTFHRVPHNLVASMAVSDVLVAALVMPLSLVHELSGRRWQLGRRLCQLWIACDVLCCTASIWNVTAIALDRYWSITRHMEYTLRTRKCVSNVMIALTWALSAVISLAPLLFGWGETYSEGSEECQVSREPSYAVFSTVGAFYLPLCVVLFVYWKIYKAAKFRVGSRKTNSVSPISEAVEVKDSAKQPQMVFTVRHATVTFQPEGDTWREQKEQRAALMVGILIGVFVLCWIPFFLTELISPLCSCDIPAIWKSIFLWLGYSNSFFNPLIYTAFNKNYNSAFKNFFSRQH
Sequence of Beta3 (P13945 whole entry): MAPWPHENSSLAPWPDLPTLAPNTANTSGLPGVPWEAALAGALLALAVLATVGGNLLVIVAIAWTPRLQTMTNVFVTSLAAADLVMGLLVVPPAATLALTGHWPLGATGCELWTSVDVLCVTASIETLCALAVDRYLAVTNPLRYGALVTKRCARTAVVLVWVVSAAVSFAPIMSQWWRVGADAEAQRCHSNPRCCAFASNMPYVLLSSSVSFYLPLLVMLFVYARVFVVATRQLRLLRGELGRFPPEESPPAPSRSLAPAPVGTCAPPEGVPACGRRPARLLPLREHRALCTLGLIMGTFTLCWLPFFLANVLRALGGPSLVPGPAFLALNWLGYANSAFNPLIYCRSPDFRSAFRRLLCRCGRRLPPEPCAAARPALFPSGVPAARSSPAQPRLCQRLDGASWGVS
Sequence of Alpha2A (P08913 whole entry): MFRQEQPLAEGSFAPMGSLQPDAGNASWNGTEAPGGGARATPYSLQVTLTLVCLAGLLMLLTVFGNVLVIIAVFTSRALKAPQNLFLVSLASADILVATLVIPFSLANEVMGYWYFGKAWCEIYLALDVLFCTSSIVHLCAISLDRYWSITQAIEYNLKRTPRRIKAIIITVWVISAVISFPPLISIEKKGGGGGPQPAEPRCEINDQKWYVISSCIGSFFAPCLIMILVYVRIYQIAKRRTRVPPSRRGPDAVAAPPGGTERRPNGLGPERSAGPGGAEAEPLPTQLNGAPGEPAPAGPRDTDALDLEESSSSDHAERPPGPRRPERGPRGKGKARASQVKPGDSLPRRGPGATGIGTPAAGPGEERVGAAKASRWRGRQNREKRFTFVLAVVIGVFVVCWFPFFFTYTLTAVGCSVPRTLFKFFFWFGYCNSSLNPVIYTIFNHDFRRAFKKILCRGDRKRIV
Sequence of H3 (Q9Y5N1 whole entry): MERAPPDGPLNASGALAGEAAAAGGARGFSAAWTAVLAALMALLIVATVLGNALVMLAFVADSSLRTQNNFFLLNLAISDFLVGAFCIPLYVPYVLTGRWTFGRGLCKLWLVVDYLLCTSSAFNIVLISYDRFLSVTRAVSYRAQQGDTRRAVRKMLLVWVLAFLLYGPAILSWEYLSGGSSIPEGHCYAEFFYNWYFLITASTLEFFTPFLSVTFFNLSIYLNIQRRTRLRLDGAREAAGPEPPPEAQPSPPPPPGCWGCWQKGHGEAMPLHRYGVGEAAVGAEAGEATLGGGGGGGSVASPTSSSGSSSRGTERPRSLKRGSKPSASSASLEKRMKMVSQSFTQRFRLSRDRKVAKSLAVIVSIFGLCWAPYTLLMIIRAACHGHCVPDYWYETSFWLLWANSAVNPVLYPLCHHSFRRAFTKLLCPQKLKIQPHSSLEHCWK
Sequence of M1 (P11229 whole entry): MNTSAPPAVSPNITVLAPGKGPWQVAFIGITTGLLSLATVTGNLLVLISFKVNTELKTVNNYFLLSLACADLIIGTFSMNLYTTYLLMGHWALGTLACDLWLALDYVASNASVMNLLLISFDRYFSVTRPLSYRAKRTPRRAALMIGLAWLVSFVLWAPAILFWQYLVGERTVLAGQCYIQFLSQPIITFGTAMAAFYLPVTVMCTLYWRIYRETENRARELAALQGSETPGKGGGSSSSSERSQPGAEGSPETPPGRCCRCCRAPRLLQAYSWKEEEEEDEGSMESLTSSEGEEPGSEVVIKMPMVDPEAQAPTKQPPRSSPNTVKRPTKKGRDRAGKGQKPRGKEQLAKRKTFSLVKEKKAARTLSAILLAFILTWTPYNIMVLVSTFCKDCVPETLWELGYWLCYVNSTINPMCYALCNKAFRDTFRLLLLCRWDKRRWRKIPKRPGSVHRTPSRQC
Sequence of PBD1 (P53350 371-594 limits assumed): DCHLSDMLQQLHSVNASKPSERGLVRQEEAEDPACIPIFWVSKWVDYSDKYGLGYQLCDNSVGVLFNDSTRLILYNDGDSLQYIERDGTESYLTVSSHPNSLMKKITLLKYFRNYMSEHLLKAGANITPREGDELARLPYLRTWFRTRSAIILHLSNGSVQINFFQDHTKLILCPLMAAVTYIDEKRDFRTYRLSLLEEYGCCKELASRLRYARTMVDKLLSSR
T3 sequence (P53350 whole entry F559D): as the sequence (P53350 whole entry) above, with F559D counted along it

Structure (SMILES)	Primary screen AVE (% inhib) ± SD (Beta3) [% inhib]	Primary screen AVE (% inhib) ± SD (5-HT2C) [% inhib]	Primary screen AVE (% inhib) ± SD (M1) [% inhib]	Primary screen AVE (% inhib) ± SD (DOR) [% inhib]	IC50 [1] [nM]	Primary screen AVE (% inhib) ± SD (5-HT5A) [% inhib]	Primary screen AVE (% inhib) ± SD (Beta1) [% inhib]	Primary screen AVE (% inhib) ± SD (Alpha2A) [% inhib]	Primary screen AVE (% inhib) ± SD (M4) [% inhib]	Primary screen AVE (% inhib) ± SD (M5) [% inhib]	Primary screen AVE (% inhib) ± SD (KOR) [% inhib]	Primary screen AVE (% inhib) ± SD (H3) [% inhib]	Ki (GABAA) [nM]	Primary screen AVE (% inhib) ± SD (GABAA) [% inhib]	Primary screen AVE (% inhib) ± SD (Alpha1B) [% inhib]	further results
Cn1cnc([N+](=O)[O-])c1Sc1nnc2n(CC3CC3)c(=O)c3sc(Cl)cc3n12 [Compound 20, 7-Chloro-4-(cyclopropylmethyl)-1-((1-methyl-4-nitro-1H-imidazol-5-yl)thio) thieno[2,3-e][1,2,4]triazolo[4,3-a]pyrimidin-5 (4H)-one]	30.8 ± 22.8	59.5 ± 3.0	50.7 ± 26.1	-1.0 ± 4.8	> 25000	24.5 ± 9.3	67.3 ± 49.1	9.4 ± 4.6	-8.7 ± 9.5	95.0 ± 7.4	3.7 ± 4.1	-12.5 ± 7.9	> 10000	33.3 ± 4.2	-1.6 ± 9.5	Ki (5-HT2C): 1300 nM; effect of inhibition of PBD1-dependent interactions and subcellular localizations (Hela cells): mitotic block; sensitivity of Plk1 with F559 mutated to a charged residue to treatment [2]: insensitive
O=c1c2sc(Cl)cc2n2c(=S)[nH]nc2n1CC1CC1 [Compound 19, 7-Chloro-4-(cyclopropylmethyl)-1-thioxo-2,4-dihydrothieno[2,3-e][1,2,4]triazolo[4,3-a]pyrimidin-5 (1H)-one]	17.9 ± 8.6	-18.3 ± 22.0	39.3 ± 10.7	-13.5 ± 6.8	1400 ± 30	-1.4 ± 14.4	-6.2 ± 19.4	-6.3 ± 7.9	-8.8 ± 4.8	130.2 ± 3.0	-0.3 ± 8.7	-18.5 ± 3.8	> 10000	35.7 ± 11.1	-7.7 ± 9.7	IC50 (PBD1): 2.53 ± 0.18 nM; Plk3 PBD IC50 ± SD (Plk3 PBD): N.S.; Plk2 PBD IC50 ± SD (Plk2 PBD): N.S.
